For orientation: melting point means the temperature of the solid-liquid transition. `CC(C)n1cc(-c2ccc(Oc3ccccc3)c(CO)c2)c2c(N)ncnc21` [Example 163, 5-[4-amino-7-isopropyl-7H-pyrrolo[2,3-d]pyrimidin-5-yl]-2-phenoxybenzylalcohol] showed a melting point of 92 to 94 °C.

The molecule `NCc1c(-c2ccc(Oc3ccccc3)cc2)c2c(N)ncnc2n1C1CCCC1` [Example 165, 6-aminomethyl-7-cyclopentyl-5-(4-phenoxyphenyl)-7H-pyrrolo[2,3-d]pyrimidin-4-ylamine] returned a melting point of 196.5 to 197.5 °C.

Molecule `CC(C)n1cc(-c2ccc(C=O)cc2)c2c(N)ncnc21` [Example 160, 4-(4-amino-7-isopropyl-7H-pyrrolo[2,3-d]pyrimidin-5-yl)benzaldehyde] returned a melting point of 198 to 200 °C.

Consider `Nc1ncnc2c1c(-c1ccc(Oc3ccccc3)cc1)cn2C1CCC(O)CC1` (centres unmarked) [Example 175, 4-[4-amino-5-(4-phenoxyphenyl)-7H-pyrrolo[2,3-d]pyrimidin-7-yl]cyclohexanol], for which the melting point lay in the range of 199 to 200 °C.

In turn, `CC(C)S(=O)(=O)n1cc(-c2ccc(Oc3ccccc3)cc2)c2c(N)ncnc21` [Example 173, 7-isopropylsulphonyl-5-(4-phenoxyphenyl)-7H-pyrrolo[2,3-d]pyrimidin-4-ylamine] gave a melting point of 162 to 162.5 °C.

Regarding `Nc1ncnc2c1c(-c1ccc(Oc3ccc(OCCO)cc3)cc1)cn2CCO` [Example 169, 7-(2-Hydroxyethyl)-5-{4-[4-(2-hydroxyethoxy)phenoxy]phenyl}pyrrolo[2,3-d]-pyrimidin-4-ylamine], the melting point fell in the range of 166 to 166.5 °C.

In turn, `CC(C)(C)n1cc(-c2ccc(N(C=O)c3ccccc3)cc2)c2cncnc21` [Example 166, 7-tertbutyl-5-(N-formyl-4-phenylaminophenyl)pyrrolo[2,3-d]pyrimidine] registered a melting point of 163 to 164 °C.

For the molecule `Nc1ncnc2c1c(-c1ccc(Oc3ccccc3)cc1)cn2C1CC2CC(O)CC2C1` (centres unmarked) [Example 174, 7-[4-amino-5-(4-phenoxyphenyl)-7H-pyrrolo[2,3-d]pyrimidin-7-yl]bicyclo[3.3.0]octan-3-ol], the melting point was in the range of 193 to 194 °C.
